Laboratory results taken from ChEMBL document CHEMBL1697781, “Assessment of the health effects of chemicals in humans: II. Construction of an adverse effects database for QSAR modeling” (Curr Drug Discov Technol, 2004).

How the values were obtained:
Settings in all cases: human; call rule not given here
Hepatotoxicity [1] = assay: FDA HLAED, liver enzyme composite activity
Hepatotoxicity [2] = assay: FDA HLAED, alkaline phosphatase increase
Hepatotoxicity [3] = assay: FDA HLAED, serum glutamic oxaloacetic transaminase (SGOT) increase
Hepatotoxicity [4] = assay: FDA HLAED, serum glutamic pyruvic transaminase (SGPT) increase
Hepatotoxicity [5] = assay: FDA HLAED, lactate dehydrogenase (LDH) increase
Hepatotoxicity [6] = assay: FDA HLAED, gamma-glutamyl transferase (GGT) increase
Throughout, for GGT Increase - Index Value: reference of the scale not given here.
Throughout, for LDH Increase - Index Value: reference of the scale not given here.

Compound | Alkaline Phosphatase Increase - Activity Score (Hepatotoxicity [2]) | Alkaline Phosphatase Increase - Index Value (Hepatotoxicity [2]) | Alkaline Phosphatase Increase - Number of Reports (Hepatotoxicity [2]) | SGOT Increase - Activity Score (Hepatotoxicity [3]) | SGOT Increase - Index Value (Hepatotoxicity [3]) | SGOT Increase - Number of Reports (Hepatotoxicity [3]) | SGPT Increase - Activity Score (Hepatotoxicity [4]) | SGPT Increase - Index Value (Hepatotoxicity [4]) | SGPT Increase - Number of Reports (Hepatotoxicity [4]) | LDH Increase - Activity Score (Hepatotoxicity [5]) | LDH Increase - Index Value (Hepatotoxicity [5]) | LDH Increase - Number of Reports (Hepatotoxicity [5]) | GGT Increase - Activity Score (Hepatotoxicity [6]) | GGT Increase - Index Value (Hepatotoxicity [6]) | GGT Increase - Number of Reports (Hepatotoxicity [6]) | Composite Activity - Active (Hepatotoxicity [1]) | Composite Activity - Marginal (Hepatotoxicity [1]) | Composite Activity - Score (Hepatotoxicity [1]) | further results
CC1(C)S[C@@H]2[C@H](NC(=O)[C@H](NC(=O)N3CCN(S(C)(=O)=O)C3=O)c3ccccc3)C(=O)N2[C@H]1C(=O)O [MEZLOCILLIN] | Inactive | 1.9 | < 4 | Inactive | 0 | < 4 | Inactive | 0 | < 4 | Inactive | 0 | < 4 | Inactive | 0 | < 4 |  |  |  | Composite Activity - Active (Hepatotoxicity [1]; Liver): 0; Composite Activity - Marginal (Hepatotoxicity [1]; Liver): 0; Composite Activity - Score (Hepatotoxicity [1]; Liver): Inactive
Cc1ncc2n1-c1ccc(Cl)cc1C(c1ccccc1F)=NC2 [MIDAZOLAM] | Inactive | 0.2 | < 4 | Inactive | 0.2 | < 4 | Inactive | 0.2 | < 4 | Inactive | 0 | < 4 | Inactive | 0 | < 4 | 0 | 0 | Inactive | 
COc1ccc(OC)c(C(O)CNC(=O)CN)c1 (stereo unspecified) [MIDODRINE] | Inactive | 0 | < 4 | Inactive | 0 | < 4 | Inactive | 0 | < 4 | Inactive | 0 | < 4 | Inactive | 0 | < 4 | 0 | 0 | Inactive | 
Nc1cc(N2CCCCC2)nc(N)[n+]1[O-] [MINOXIDIL] | Inactive | 0.7 | >= 4 | Inactive | 0.9 | >= 4 | Inactive | 1.1 | >= 4 | Inactive | 0 | < 4 | Inactive | 0.3 | < 4 | 0 | 0 | Inactive | 
CN1CCN2c3ncccc3Cc3ccccc3C2C1 (stereo unspecified) [MIRTAZAPINE] | Inactive | 0.9 | < 4 | Marginally Active | 3.6 | >= 4 | Active | 6.4 | >= 4 | Inactive | 0.9 | < 4 | Marginally Active | 3.6 | < 4 | 1 | 2 | Inactive | 
CCCCC(C)(O)C/C=C/[C@H]1[C@H](O)CC(=O)[C@@H]1CCCCCCC(=O)OC (stereo partly specified) [MISOPROSTOL] | Inactive | 0.8 | >= 4 | Inactive | 0.8 | >= 4 | Inactive | 0.2 | < 4 | Inactive | 0.5 | < 4 | Inactive | 0.5 | < 4 | 0 | 0 | Inactive | 
O=C1c2c(O)ccc(O)c2C(=O)c2c(NCCNCCO)ccc(NCCNCCO)c21 [MITOXANTRONE] | Inactive | 4.5 | < 4 | Active | 13.5 | < 4 | Inactive | 4.5 | < 4 | Inactive | 0 | < 4 | Inactive | 0 | < 4 | 1 | 0 | Inactive | 
COc1cc2c(cc1OC)[C@@H](Cc1cc(OC)c(OC)c(OC)c1)[N+](C)(CCCOC(=O)CC/C=C/CCC(=O)OCCC[N+]1(C)CCc3cc(OC)c(OC)cc3[C@H]1Cc1cc(OC)c(OC)c(OC)c1)CC2.[Cl-].[Cl-] (stereo partly specified) [MIVACURIUM CHLORIDE] | Inactive | 0 | < 4 | Inactive | 0 | < 4 | Inactive | 0 | < 4 | Inactive | 0 | < 4 | Inactive | 0 | < 4 | 0 | 0 | Inactive | 
CCOC(=O)[C@H](CCc1ccccc1)N[C@@H](C)C(=O)N1Cc2cc(OC)c(OC)cc2C[C@H]1C(=O)O [MOEXIPRIL] | Inactive | 0 | < 4 | Inactive | 1.3 | < 4 | Inactive | 1.3 | < 4 | Inactive | 0 | < 4 | Inactive | 0 | < 4 | 0 | 0 | Inactive | 
C[C@@H]1C[C@H]2[C@@H]3CCC4=CC(=O)C=C[C@]4(C)[C@@]3(Cl)[C@@H](O)C[C@]2(C)[C@@]1(O)C(=O)CCl [MOMETASONE] | Inactive | 0 | < 4 | Inactive | 0 | < 4 | Inactive | 0 | < 4 | Inactive | 0 | < 4 | Inactive | 0 | < 4 | 0 | 0 | Inactive | 
CCOC(=O)Nc1ccc2c(c1)N(C(=O)CCN1CCOCC1)c1ccccc1S2 [MORICIZINE] | Inactive | 3.4 | < 4 | Active | 13.7 | >= 4 | Inactive | 3.4 | < 4 | Inactive | 3.4 | < 4 | Inactive | 0 | < 4 | 1 | 0 | Inactive | 
C/C(=C\C(=O)OCCCCCCCCC(=O)O)C[C@@H]1OC[C@H](C[C@@H]2O[C@H]2[C@@H](C)[C@H](C)O)[C@@H](O)[C@H]1O [MUPIROCIN] | Inactive | 0 | < 4 | Inactive | 0 | < 4 | Inactive | 0 | < 4 | Inactive | 0 | < 4 | Inactive | 0 | < 4 | 0 | 0 | Inactive | 
